Assay results published in PMC13376213, “Systematic discovery of motif-based interactions of the auxiliary domains of USP family deubiquitinases” (Nature Communications, 2026).
Residue numbers refer to the chain shown, from its start. Where two headings read alike, the source gives them in different places. Values belong to the molecule of their own block, whether it stands above or below them. Peptide text beside a SMILES is read from it. * marks the point of attachment. FITC = O=C1OC2(c3ccc(O)cc3Oc3cc(O)ccc32)c2ccc(NC(=S)*)cc21

Tests used:
[1] = molecular target: T1, USP33 DUSP2 N835A (Homo sapiens, UniProt Q8TEY7, N835A); experiment: FP-monitored affinity measurements, USP33 DUSP2 single mutant; format: binding
T1 construct: USP33_DUSP2; Q8TEY7; DUSP2; 806; 921; 6xHis-GST (N, cleaved yes); made in house; host or cells: Escherichia coli BL21-Gold (DE3)
T1 sequence (Q8TEY7 806-921 N835A): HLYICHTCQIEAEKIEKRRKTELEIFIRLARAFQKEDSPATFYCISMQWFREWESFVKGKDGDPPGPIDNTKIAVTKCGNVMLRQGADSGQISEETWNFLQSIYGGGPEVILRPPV
Protocol: (§1) Proteins were expressed in Escherichia coli (E.coli) BL21-Gold (DE3) bacteria. The cDNAs encoding N-terminal 6-histidine-glutathione S-transferase tagged (6xHis-GST), 6xHis-tagged or GST-tagged protein domains in pETM33, pETM11, pGEX6P1 expression vectors respectively, were obtained from Genescript or kindly provided by MRC-PPU (Suppl. Data 1) The bacteria were transformed with the plasmid and grew at 37 °C in 2YT (5 g/L NaCl, 16 g/L tryptone and 10 g/L yeast extract) supplemented with Kanamycin (30 μg/mL) until reaching an OD600 of 0.7. Protein expression was induced with 0.3 mM isopropyl β-D-1 thiogalactopyranoside (IPTG) for 18 h at 18 °C while shaking. For zinc-finger domains, 50 μM of ZnSO4 was added during expression. […] For fluorescence polarization experiments, the proteins were not eluted from the beads, and the 6xHis-GST tag was cleaved overnight on GSH Sepharose beads at 4 °C while shaking with PreScission Protease in cleavage buffer (50 mM Tris pH 7.5, 150 mM NaCl, 1 mM DTT). […] The purity and size of the proteins were analyzed by SDS-PAGE electrophoresis.
(§2) The measurements were performed at room temperature in a non-binding black half area 96-well plate (Corning) with a total volume of 50 μL per well. […] The data were analyzed using GraphPad Prism version 9.2.0 for MacOS (GraphPad Software, San Diego, California USA, www.graphpad.com). […]

[2] = molecular target: T2, USP33 DUSP2 K863E-K865E (Homo sapiens, UniProt Q8TEY7, K863E/K865E); experiment: FP-monitored affinity measurements, USP33 DUSP2 double mutant; format: binding
T2 construct: USP33_DUSP2; Q8TEY7; DUSP2; 806; 921; 6xHis-GST (N, cleaved yes); made in house; host or cells: Escherichia coli BL21-Gold (DE3)
T2 sequence (Q8TEY7 806-921 K863E/K865E): T1 sequence (Q8TEY7 806-921 N835A) with A30N, K58E, K60E
Protocol: as §1, §2

[3] = molecular target: T3, USP33 DUSP2 domain (Homo sapiens, UniProt Q8TEY7); experiment: FP-monitored affinity measurements, USP33 DUSP2; format: binding; details: USP33_DUSP2; direct FP titration (saturation) of the FITC-labelled peptide; read-out: KD
T3 construct: USP33_DUSP2; Q8TEY7; DUSP2; 806; 921; 6xHis-GST (N, cleaved yes); made in house; host or cells: Escherichia coli BL21-Gold (DE3)
T3 sequence (Q8TEY7 with tags, fused parts or gaps): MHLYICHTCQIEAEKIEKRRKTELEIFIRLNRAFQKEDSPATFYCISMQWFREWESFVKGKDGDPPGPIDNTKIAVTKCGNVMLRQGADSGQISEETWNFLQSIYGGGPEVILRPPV
Protocol: Proteins were expressed in Escherichia coli (E.coli) BL21-Gold (DE3) bacteria. The cDNAs encoding N-terminal 6-histidine-glutathione S-transferase tagged (6xHis-GST), 6xHis-tagged or GST-tagged protein domains in pETM33, pETM11, pGEX6P1 expression vectors respectively, were obtained from Genescript or kindly provided by MRC-PPU (Suppl. Data 1) The bacteria were transformed with the plasmid and grew at 37 °C in 2YT (5 g/L NaCl, 16 g/L tryptone and 10 g/L yeast extract) supplemented with Kanamycin (30 μg/mL) until reaching an OD600 of 0.7. Protein expression was induced with 0.3 mM isopropyl β-D-1 thiogalactopyranoside (IPTG) for 18 h at 18 °C while shaking. For zinc-finger domains, 50 μM of ZnSO4 was added during expression. The bacterial cultures were pelleted for 15 minutes at 4000 x g at 4 °C and stored at −20 °C until purification. The pellets were resuspended in lysis buffer (1× phosphate-buffered saline (PBS), 0.5 % Triton-X, 5 mM MgCl2, 10 μg/mL lysozyme, cOmplete^TM EDTA-free protease inhibitor cocktail (Roche), 10 μg/mL DNAseI) and incubated for 1 h shaking at 4 °C. […] The supernatant was incubated with glutathione (GSH) Sepharose (Cytiva) or Ni2+ Sepharose (Cytiva) for 1 h at 4 °C while shaking. The beads with the bound protein were washed with 1x PBS and eluted with 10 mM reduced glutathione in 50 mM Tris pH 8.0. For fluorescence polarization experiments, the proteins were not eluted from the beads, and the 6xHis-GST tag was cleaved overnight on GSH Sepharose beads at 4 °C while shaking with PreScission Protease in cleavage buffer (50 mM Tris pH 7.5, 150 mM NaCl, 1 mM DTT). The sample containing the cleaved domain was separated from the tag and protease and buffer-exchanged to 50 mM sodium phosphate buffer pH 7.4 with 1 mM DTT using a PD-10 desalting column (Cytiva). The purity and size of the proteins were analyzed by SDS-PAGE electrophoresis.
The measurements were performed at room temperature in a non-binding black half area 96-well plate (Corning) with a total volume of 50 μL per well. Peptides were obtained from GeneCust (France) with >95% purity. FITC-labeled peptides (N-terminally FITC-labeled without spacer and C-terminally amidated) were dissolved in dimethyl sulfoxide (DMSO), and unlabeled peptides (N-terminally acetylated and C-terminally amidated) were dissolved in 50 mM phosphate buffer pH 7.4. Saturation measurements were performed using a serial dilution of the protein domains in phosphate buffer (25 μL) and the addition of 10 nM FITC-labeled peptide (in phosphate buffer supplemented with 2 mM DTT) (25 μL). […] All measurements were performed in three technical replicates. The data were analyzed using GraphPad Prism version 9.2.0 for MacOS (GraphPad Software, San Diego, California USA, www.graphpad.com). The saturation curves were fitted to the quadratic equation, and the displacement curves were fitted to a sigmoidal dose-response equation as described previously.

[4] = test system: FLAG-USP33; experiment: IP-MS of FLAG-USP33 and variants vs empty vector; format: cell-based, human
Protocol: For transfection, 1x10^6 HEK293 cells were seeded in 10 cm dishes with DMEM, 10% FBS, 1% L-G (without antibiotic) medium, incubated at 37 °C, with 5 % CO2 for 24 h. Cells were transfected with a transfection mix containing […] of Opti-MEM (Thermo Fisher Scientific), 20 μL of PEI stock (1 mg/mL) and […] of the desired cDNA. For co-transfection, 2.5 μg of DNA of each plasmid was used. The mix was vortexed for 15 s and incubated at room temperature for 15–20 min. The transfection mix was added to the dish and gently mixed. Plates were incubated at 37 °C for 36–48 h before harvesting. For USP33 constructs, 5 μM Bortezomib (proteasome inhibitor) was added 4 hours before harvesting the cells.
FLAG fusion proteins were immunoprecipitated from HEK293 cells transfected with plasmids encoding the protein of interest using the anti-FLAG M2 affinity gel from Sigma-Aldrich. Cell pellets were lysed with 100–200 μL/per dish lysis buffer (Pierce RIPA buffer, 1X protease inhibitor (Roche), 50 unit/μL of Benzonase Nuclease) rotating at 4 °C for 30–45 min. […] The cell lysate was clarified by centrifugation at 17,000 x g, at 4 °C for 12 min, and the supernatant was transferred to a clean, pre-chilled low-binding Eppendorf tube. […] The IP samples were centrifuged at 6500 x g at 4 °C for 30 s. The supernatant containing the unbound proteins was transferred to a clean tube. The resin was washed three times with 500 μL of TBS, centrifuged at 6500 x g at 4 °C for 30 s. The bound FLAG fusion protein was eluted with 100 μL of 150 ng/μL 3X FLAG peptide (Sigma) in TBS and incubated in the cold room for 1 h or overnight. The tube was centrifuged at 6500 x g at 4 °C for 30 s; the eluted proteins were transferred to a clean tube. The eluted proteins were prepared for analysis by western blot or Mass Spectrometry.
Immunoprecipitation (IP) was carried out as described above; four technical replicates of each IP condition were performed, and the empty vector was used as a negative control. The eluted protein was processed following the Strap-micro protocol (Protifi). The IP elution containing 1–100 μg protein was 1:1 mixed with 2X lysis buffer (10% SDS, 100 mM TEAB pH 8.5). […] Samples were vortexed, mixed with 165 μL of 100 mM TEAB in 90% methanol, and passed through an S-Trap micro column at 4000 g for 30 s to trap the proteins. The column was washed with 150 μL of 100 mM TEAB in 90% methanol (at 4,000 x g for 30 seconds) three times. The S-Trap column was centrifuged again and transferred to a clean 2 mL tube for digestion with 20 μL of digestion buffer (1 μg trypsin per 10 μg sample in 50 mM TEAB), at 37 °C overnight in a thermomixer without shaking. The digested peptides were eluted with […] of 50 mM TEAB in water, […] of 0.2 % formic acid in water, and […] of 50 % acetonitrile in water, centrifuging at 4000 x g for 1 min each time. The three elutions were pooled in a low-binding tube, placed on dry ice until frozen, dried in a SpeedVac vacuum (Thermo Scientific), and proceeded with the LCMS analysis.
Eluted peptides were resuspended in water supplemented with 0.015% dodecyl maltoside and 0.1% formic acid and were injected on a Vanquish Neo UHPLC System operating in trap and elute mode coupled to an Orbitrap Astral Mass Spectrometer (Thermo Fisher Scientific). […] Eluted peptides were analyzed using data-independent acquisition mode on the mass spectrometer.
Peptides were searched against the Uniprot Swissprot Human database (released on 02/01/2023) supplemented with the USP20 and USP33 mutants using DiaNN (v1.9.0)[62] operating in library-free mode. Data filtering and statistical analysis were carried out in Python (v3.9.0) using the packages pandas, numpy, sklearn, scipy, rpy2, Plotnine, and Plotly and R (v4.4.3) using the package limma.
Protein groups identified with a single peptide or quantified in fewer than three replicates in at least 1 condition were filtered out. […]

[5] = test system: FLAG-USP20; experiment: IP-MS of FLAG-USP20 and variants vs empty vector; format: cell-based, human; details: IP-MS, FLAG-USP20-ΔUBP vs EV; comparison bh_2 Sample_Limma_ImpMedInt_USP20_UBP_domain/EV
Protocol: For transfection, 1x10^6 HEK293 cells were seeded in 10 cm dishes with DMEM, 10% FBS, 1% L-G (without antibiotic) medium, incubated at 37 °C, with 5 % CO2 for 24 h. Cells were transfected with a transfection mix containing 970 mL of Opti-MEM (Thermo Fisher Scientific), 20 μL of PEI stock (1 mg/mL) and 5 mg of the desired cDNA. For co-transfection, 2.5 μg of DNA of each plasmid was used. The mix was vortexed for 15 s and incubated at room temperature for 15–20 min. The transfection mix was added to the dish and gently mixed. Plates were incubated at 37 °C for 36–48 h before harvesting. For USP33 constructs, 5 μM Bortezomib (proteasome inhibitor) was added 4 hours before harvesting the cells.
FLAG fusion proteins were immunoprecipitated from HEK293 cells transfected with plasmids encoding the protein of interest using the anti-FLAG M2 affinity gel from Sigma-Aldrich. […] The cell lysate was clarified by centrifugation at 17,000 x g, at 4 °C for 12 min, and the supernatant was transferred to a clean, pre-chilled low-binding Eppendorf tube. […] The IP samples were centrifuged at 6500 x g at 4 °C for 30 s. The supernatant containing the unbound proteins was transferred to a clean tube. The resin was washed three times with 500 μL of TBS, centrifuged at 6500 x g at 4 °C for 30 s. The bound FLAG fusion protein was eluted with 100 μL of 150 ng/μL 3X FLAG peptide (Sigma) in TBS and incubated in the cold room for 1 h or overnight. The tube was centrifuged at 6500 x g at 4 °C for 30 s; the eluted proteins were transferred to a clean tube. The eluted proteins were prepared for analysis by western blot or Mass Spectrometry.
Immunoprecipitation (IP) was carried out as described above; four technical replicates of each IP condition were performed, and the empty vector was used as a negative control. The eluted protein was processed following the Strap-micro protocol (Protifi). The IP elution containing 1–100 μg protein was 1:1 mixed with 2X lysis buffer (10% SDS, 100 mM TEAB pH 8.5). […] Samples were vortexed, mixed with 165 μL of 100 mM TEAB in 90% methanol, and passed through an S-Trap micro column at 4000 g for 30 s to trap the proteins. The column was washed with 150 μL of 100 mM TEAB in 90% methanol (at 4,000 x g for 30 seconds) three times. The S-Trap column was centrifuged again and transferred to a clean 2 mL tube for digestion with 20 μL of digestion buffer (1 μg trypsin per 10 μg sample in 50 mM TEAB), at 37 °C overnight in a thermomixer without shaking. The digested peptides were eluted with 40 mL of 50 mM TEAB in water, 40 mL of 0.2 % formic acid in water, and 40 mL of 50 % acetonitrile in water, centrifuging at 4000 x g for 1 min each time. The three elutions were pooled in a low-binding tube, placed on dry ice until frozen, dried in a SpeedVac vacuum (Thermo Scientific), and proceeded with the LCMS analysis.
Protein groups identified with a single peptide or quantified in fewer than three replicates in at least 1 condition were filtered out. Protein group intensities were median normalized and missing values were imputed using a Gaussian distribution centered on the median with a downshift of 1.8 and width of 0.3 (relative to the standard deviation).

[6] = molecular target: T4, USP20 zf-UBP domain (Homo sapiens, UniProt Q9Y2K6); experiment: Peptide SPOT array, USP20 zf-UBP; format: binding; details: array of 120 peptides probed with GST-tagged zf-UBP domains of USP20 and USP33
T4 construct: USP20_UBP; Q9Y2K6; zf-UBP; 99; 6xHis-GST (N, cleaved yes); made in house; host or cells: Escherichia coli BL21-Gold (DE3)
T4 sequence (Q9Y2K6 4-99): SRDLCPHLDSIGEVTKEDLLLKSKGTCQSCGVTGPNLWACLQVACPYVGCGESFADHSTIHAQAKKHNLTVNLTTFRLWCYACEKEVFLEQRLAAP
Protocol: Peptides were synthesized on cellulose membranes with standard Fluoroenylmethylox-ycarbonyl (Fmoc) chemistry using a Multipep automated synthesizer at INTAVIS (Tübingen, Germany) or ordered from JPT (PepSpots). […] The images were analyzed in Fiji (ImageJ2 version 2.9.0).

Molecule: CSCC[C@H](NC(=S)Nc1ccc2c(c1)C(=O)OC21c2ccc(O)cc2Oc2cc(O)ccc21)C(=O)N[C@@H](CC(=O)O)C(=O)N[C@@H](CC(=O)O)C(=O)N[C@@H](CC(=O)O)C(=O)N[C@@H](Cc1ccccc1)C(=O)N[C@@H](CCC(N)=O)C(=O)N[C@@H](CC(C)C)C(=O)N[C@@H](CCCNC(=N)N)C(=O)N[C@@H](CO)C(=O)N[C@@H](Cc1ccccc1)C(=O)N[C@@H](CC(=O)O)C(=O)N[C@@H](CCC(N)=O)C(=O)N[C@@H](CC(C)C)C(=O)N[C@@H](CO)C(N)=O [FITC-HIF1A568-581] ({FITC}-MDDDFQLRSFDQLS-NH2)
Kd ([1]; FP, FITC-labeled probe peptide, single mutant domain (Fig. 5F), technical triplicate, read-out: KD, USP33 DUSP2 N835A with FITC-labeled probe peptide): > 300 µM
Kd ([2]; FP, FITC-labeled probe peptide, double mutant domain (Fig. 5F), technical triplicate, read-out: KD, USP33 DUSP2 K863E-K865E with FITC-labeled probe peptide): > 300 µM

Molecule: ESYT2
log2_FC ([4]; IP-MS, FLAG-USP33 UBP mutant vs EV, comparison USP33_E86K_D90R/EV, Limma): 1.582
log2_FC ([4]; IP-MS, FLAG-USP33 vs EV, comparison USP33_wt/EV, Limma): 1.824
log2_FC ([4]; Table S7c USP33 MS_and_motif, bait USP33): 1.824
log2_FC [5]: 1.764

Molecule: TMEM131L
log2_FC [5]: 4.636

Further lines, results first:

Kd ([1]; USP33_DUSP2_N835A, direct FP titration (saturation) of the FITC-labelled peptide, read-out: KD): ~353 µM
Kd [3]: 31.3 µM
Kd ([2]; USP33_DUSP2_K863E/K865E, direct FP titration (saturation) of the FITC-labelled peptide, read-out: KD): ~319 µM
Molecule: CSCC[C@H](NC(=S)Nc1ccc2c(c1)C(=O)OC21c2ccc(O)cc2Oc2cc(O)ccc21)C(=O)N[C@@H](CC(=O)O)C(=O)N[C@@H](CC(=O)O)C(=O)N[C@@H](CC(=O)O)C(=O)N[C@@H](Cc1ccccc1)C(=O)N[C@@H](CCC(N)=O)C(=O)N[C@@H](CC(C)C)C(=O)N[C@@H](CCCNC(=N)N)C(=O)N[C@@H](CO)C(=O)N[C@@H](Cc1ccccc1)C(=O)N[C@@H](CC(=O)O)C(=O)N[C@@H](CCC(N)=O)C(=O)N[C@@H](CC(C)C)C(=O)N[C@@H](CO)C(N)=O [FITC_HIF1A] ({FITC}-MDDDFQLRSFDQLS-NH2)

binding in peptide SPOT array, USP20 versus USP33 zf-UBP [6]: only bound to USP20
Molecule: TQNLEDREVLNGVQTE [PARD3B]
